Source: the supplement of paper PMC10307832

Compound: COC1=CC=C(C=C1)COC2=C(C=C(C=C2)CC3=CN=C(N=C3N)N)OC [GW-2580]
Assay: relative viability (nuclei count vs DMSO), 5 days (fraction); higher = more cells survive
Conditions: 0.08 µM
Procedure, shortened: (§1)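 Vehicle-anchored 1536-well plates of lung cancer cell lines, held overnight at 37 °C, were pinned with five library-drug doses (not always all listed) spaced by √10. No medium change followed over the next 5 days, after which the cells were fixed, permeabilised and Hoechst-stained together and imaged at 4×. Nuclei were counted with MetaXpress, and viability is treated-well nuclei over vehicle-well nuclei, taken as a median across plates. Plates passed with control CV below 25% and at least one doubling.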

Cell Line | relative viability
NCI-H1993 | 0.86
SW 1573 | 1.05
NCI-H838 | 1.09
NCI-H520 | 1.09
NCI-H2126 | 1.02
EMC-BAC-2 | 1.02
NCI-H2085 | 1.05
HCC-366 | 0.997
NCI-H1666 | 0.976
NCI-H596 | 1.03
LK-2 | 1.18
NCI-H2087 | 1
SK-MES-1 | 1.1
H3255 | 0.954
COR-L23 | 1.15

Same assay, conditions: 0.8 µM

Cell Line | relative viability
NCI-H1993 | 1.16
SW 1573 | 0.994
NCI-H838 | 1.05
NCI-H520 | 1.13
NCI-H2126 | 1.01
EMC-BAC-2 | 1.12
NCI-H2085 | 1.03
HCC-366 | 1.06
NCI-H1666 | 1.38
NCI-H596 | 1.07
LK-2 | 0.988
NCI-H2087 | 1.08
SK-MES-1 | 1.08
H3255 | 1.2
COR-L23 | 1.12

Same assay, conditions: 2.53 µM

Cell Line | relative viability
NCI-H1993 | 0.764
SW 1573 | 0.868
NCI-H838 | 0.884
NCI-H520 | 0.894
NCI-H2126 | 0.979
EMC-BAC-2 | 0.643
NCI-H2085 | 0.987
HCC-366 | 1.11
NCI-H1666 | 0.937
NCI-H596 | 1.02
LK-2 | 0.742
NCI-H2087 | 0.942
SK-MES-1 | 0.96
H3255 | 0.894
COR-L23 | 1.03

Same assay, conditions: 8 µM

Cell Line | relative viability
NCI-H1993 | 1.1
SW 1573 | 0.946
NCI-H838 | 1
NCI-H520 | 1.12
NCI-H2126 | 1.05
EMC-BAC-2 | 0.901
NCI-H2085 | 0.954
HCC-366 | 1.07
NCI-H1666 | 0.97
NCI-H596 | 1.18
LK-2 | 1.02
NCI-H2087 | 0.933
SK-MES-1 | 0.984
H3255 | 0.85
COR-L23 | 0.932

Compound: Cc1cnc(Nc2ccc(OCCN3CCCC3)cc2)nc1Nc1cccc(S(=O)(=O)NC(C)(C)C)c1 [Fedratinib]
Assay: as above
Conditions: 0.1 µM
Procedure, shortened: as §1

Cell Line | relative viability
NCI-H1993 | 0.822
SW 1573 | 0.987
NCI-H838 | 0.928
NCI-H520 | 0.93
NCI-H2126 | 0.95
EMC-BAC-2 | 1.1
NCI-H2085 | 0.929
HCC-366 | 0.997
NCI-H1666 | 0.859
NCI-H596 | 0.99
LK-2 | 1.09
NCI-H2087 | 1
SK-MES-1 | 0.977
H3255 | 0.963
COR-L23 | 0.958

Same assay, conditions: 0.3162 µM

Cell Line | relative viability
NCI-H1993 | 1.03
SW 1573 | 0.998
NCI-H838 | 0.996
NCI-H520 | 0.997
NCI-H2126 | 0.98
EMC-BAC-2 | 1.01
NCI-H2085 | 1.02
HCC-366 | 1.02
NCI-H1666 | 1.04
NCI-H596 | 0.973
LK-2 | 1.03
NCI-H2087 | 0.99
SK-MES-1 | 1.02
H3255 | 0.923
COR-L23 | 1.04

Same assay, conditions: 1 µM

Cell Line | relative viability
NCI-H1993 | 0.835
SW 1573 | 0.897
NCI-H838 | 0.8
NCI-H520 | 0.9
NCI-H2126 | 0.927
EMC-BAC-2 | 0.833
NCI-H2085 | 0.883
HCC-366 | 0.962
NCI-H1666 | 0.982
NCI-H596 | 0.851
LK-2 | 0.734
NCI-H2087 | 0.856
SK-MES-1 | 0.911
H3255 | 0.86
COR-L23 | 1.03

Compound: COC1=CC=C(C=C1)COC2=C(C=C(C=C2)CC3=CN=C(N=C3N)N)OC [GW-2580] + CS(=O)(=O)N1CCN(Cc2cc3nc(-c4cccc5[nH]ncc45)nc(N4CCOCC4)c3s2)CC1 [Pictilisib] (partner 1 µM)
Assay: relative viability (nuclei count vs DMSO), 5 days (fraction); higher = more cells survive
Conditions: first compound 0.08 µM
Procedure, shortened: (§2)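 Relative viability is defined as nuclei in treated wells over nuclei in vehicle wells. Duplicate plates were run and medians reported. Lung cancer cell lines in 1536-well plates were dosed by pin tool one day after seeding, with one drug or with a fixed anchor-drug dose plus five library-drug doses (not always all listed) in √10 steps, and nuclei were counted after 5 days.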

Cell Line | relative viability
NCI-H1993 | 0.827
SW 1573 | 0.442
NCI-H838 | 0.569
NCI-H520 | 0.35
NCI-H2126 | 0.483
EMC-BAC-2 | 0.577
NCI-H2085 | 0.498
HCC-366 | 0.148
NCI-H1666 | 0.55
NCI-H596 | 0.4
LK-2 | 0.476
NCI-H2087 | 1.04
SK-MES-1 | 0.34
H3255 | 0.534
COR-L23 | 0.834

Same assay, conditions: first compound 0.8 µM

Cell Line | relative viability
NCI-H1993 | 0.804
SW 1573 | 0.613
NCI-H838 | 0.462
NCI-H520 | 0.287
NCI-H2126 | 0.497
EMC-BAC-2 | 0.618
NCI-H2085 | 0.386
HCC-366 | 0.199
NCI-H1666 | 0.653
NCI-H596 | 0.407
LK-2 | 0.569
NCI-H2087 | 1.03
SK-MES-1 | 0.381
H3255 | 0.471
COR-L23 | 0.969

Same assay, conditions: first compound 2.53 µM

Cell Line | relative viability
SW 1573 | 0.542
NCI-H838 | 0.326
NCI-H520 | 0.279
NCI-H2126 | 0.448
EMC-BAC-2 | 0.452
NCI-H2085 | 0.461
HCC-366 | 0.141
NCI-H1666 | 0.316
NCI-H596 | 0.343
LK-2 | 0.428
NCI-H2087 | 0.61
SK-MES-1 | 0.355
H3255 | 0.419
COR-L23 | 0.695

Same assay, conditions: first compound 8 µM

Cell Line | relative viability
NCI-H1993 | 0.655
SW 1573 | 0.536
NCI-H838 | 0.614
NCI-H520 | 0.332
NCI-H2126 | 0.452
EMC-BAC-2 | 0.519
NCI-H2085 | 0.494
HCC-366 | 0.137
NCI-H1666 | 0.573
NCI-H596 | 0.392
LK-2 | 0.552
NCI-H2087 | 0.767
SK-MES-1 | 0.324
H3255 | 0.464
COR-L23 | 0.888

Compound: Cc1cnc(Nc2ccc(OCCN3CCCC3)cc2)nc1Nc1cccc(S(=O)(=O)NC(C)(C)C)c1 [Fedratinib] + CS(=O)(=O)CCNCc1ccc(-c2ccc3ncnc(Nc4ccc(OCc5cccc(F)c5)c(Cl)c4)c3c2)o1 [Lapatinib] (partner 2 µM)
Assay: as above
Conditions: first compound 0.1 µM
Procedure, shortened: as §2

Cell Line | relative viability
NCI-H1993 | 0.725
SW 1573 | 1.13
NCI-H838 | 0.875
NCI-H520 | 0.86
NCI-H2126 | 0.761
EMC-BAC-2 | 1
NCI-H2085 | 0.709
HCC-366 | 1.34
NCI-H1666 | 0.503
NCI-H596 | 0.961
LK-2 | 0.798
NCI-H2087 | 1.25
SK-MES-1 | 0.469
H3255 | 0.216
COR-L23 | 1.04

Same assay, conditions: first compound 0.3162 µM

Cell Line | relative viability
NCI-H1993 | 0.82
SW 1573 | 1.15
NCI-H838 | 1.02
NCI-H520 | 0.717
NCI-H2126 | 0.772
EMC-BAC-2 | 0.901
NCI-H2085 | 0.766
HCC-366 | 0.989
NCI-H1666 | 0.671
NCI-H596 | 1.07
LK-2 | 0.828
NCI-H2087 | 1.31
SK-MES-1 | 0.481
H3255 | 0.231
COR-L23 | 0.999

Same assay, conditions: first compound 1 µM

Cell Line | relative viability
NCI-H1993 | 0.608
SW 1573 | 1.01
NCI-H838 | 0.205
NCI-H520 | 0.18
NCI-H2126 | 0.689
EMC-BAC-2 | 0.909
NCI-H2085 | 0.538
HCC-366 | 0.304
NCI-H1666 | 0.258
NCI-H596 | 0.829
LK-2 | 0.638
NCI-H2087 | 0.303
SK-MES-1 | 0.458
H3255 | 0.218
COR-L23 | 1.07

Compound: Cc1cnc(Nc2ccc(OCCN3CCCC3)cc2)nc1Nc1cccc(S(=O)(=O)NC(C)(C)C)c1 [Fedratinib] + CC(=O)Nc1cccc(-n2c(=O)n(C3CC3)c(=O)c3c(Nc4ccc(I)cc4F)n(C)c(=O)c(C)c32)c1 [Trametinib] (partner 0.02 µM)
Assay: as above
Conditions: first compound 0.1 µM
Procedure, shortened: as §2

Cell Line | relative viability
NCI-H1993 | 0.547
SW 1573 | 0.489
NCI-H838 | 0.475
NCI-H520 | 0.476
NCI-H2126 | 0.493
EMC-BAC-2 | 0.931
NCI-H2085 | 0.598
HCC-366 | 0.363
NCI-H1666 | 1
NCI-H596 | 0.739
LK-2 | 0.799
NCI-H2087 | 0.203
SK-MES-1 | 0.547
H3255 | 0.506
COR-L23 | 0.576

Same assay, conditions: first compound 0.3162 µM

Cell Line | relative viability
NCI-H1993 | 0.419
SW 1573 | 0.538
NCI-H838 | 0.525
NCI-H520 | 0.801
NCI-H2126 | 0.582
EMC-BAC-2 | 0.939
NCI-H2085 | 0.512
HCC-366 | 0.36
NCI-H1666 | 0.824
NCI-H596 | 0.804
LK-2 | 0.8
NCI-H2087 | 0.177
SK-MES-1 | 0.581
H3255 | 0.69
COR-L23 | 0.604

Same assay, conditions: first compound 1 µM

Cell Line | relative viability
NCI-H1993 | 0.421
SW 1573 | 0.402
NCI-H838 | 0.542
NCI-H520 | 0.63
NCI-H2126 | 0.541
EMC-BAC-2 | 0.978
NCI-H2085 | 0.458
HCC-366 | 0.257
NCI-H1666 | 0.861
NCI-H596 | 0.755
LK-2 | 0.605
NCI-H2087 | 0.213
SK-MES-1 | 0.476
H3255 | 0.706
COR-L23 | 0.155

Compound: Cc1cnc(Nc2ccc(OCCN3CCCC3)cc2)nc1Nc1cccc(S(=O)(=O)NC(C)(C)C)c1 [Fedratinib] + C[C@]1(O)C[C@@H](c2nc(-c3ccc4ccc(-c5ccccc5)nc4c3)c3c(N)nccn32)C1 [Linsitinib] (partner 1 µM)
Assay: as above
Conditions: first compound 0.1 µM
Procedure, shortened: as §2

Cell Line | relative viability
NCI-H1993 | 0.706
SW 1573 | 0.683
NCI-H838 | 1.01
NCI-H520 | 1.09
NCI-H2126 | 0.689
EMC-BAC-2 | 0.802
NCI-H2085 | 0.845
HCC-366 | 0.55
NCI-H1666 | 0.726
NCI-H596 | 1.01
LK-2 | 0.349
NCI-H2087 | 1.02
SK-MES-1 | 1.08
H3255 | 1.04
COR-L23 | 1.04

Same assay, conditions: first compound 0.3162 µM

Cell Line | relative viability
NCI-H1993 | 0.718
SW 1573 | 0.768
NCI-H838 | 1.05
NCI-H520 | 1.25
NCI-H2126 | 0.732
EMC-BAC-2 | 0.832
NCI-H2085 | 0.872
HCC-366 | 0.663
NCI-H1666 | 0.875
NCI-H596 | 1.08
LK-2 | 0.733
NCI-H2087 | 0.923
SK-MES-1 | 1.11
H3255 | 1.03
COR-L23 | 0.906

Same assay, conditions: first compound 1 µM

Cell Line | relative viability
NCI-H1993 | 0.682
SW 1573 | 0.802
NCI-H838 | 0.984
NCI-H520 | 1.02
NCI-H2126 | 0.682
EMC-BAC-2 | 0.796
NCI-H2085 | 0.858
HCC-366 | 0.663
NCI-H1666 | 0.869
NCI-H596 | 1.08
LK-2 | 0.495
NCI-H2087 | 0.859
SK-MES-1 | 1
H3255 | 0.926
COR-L23 | 0.759
